According to the NIST ThermoML archive (doi:10.1021/je0496140):

Assays:
[1] = 101.33 kPa, Liquid
[2] = xn = mol fraction of the nth substance listed; details: 101.33 kPa, Liquid

CC(C)(C)O [2-methylpropan-2-ol]
[1]
Details | mass density [kg/m3] | viscosity [mPa·s]
298.15 K | 779.96 | 4.433
303.15 K | 775.3 | 3.355
308.15 K | 770.19 | 2.611
313.15 K | 764.83 | 2.074
318.15 K | 759.52 | 1.685

CCCCCl [1-chlorobutane] + CC(C)CO
[2]
Details | mass density [kg/m3] | viscosity [mPa·s]
288.15 K, x2 = 0.0369 | 888.52 | –
288.15 K, x2 = 0.0769 | 885.16 | –
288.15 K, x2 = 0.1003 | – | 0.511
288.15 K, x2 = 0.1526 | 878.94 | –
288.15 K, x2 = 0.1993 | – | 0.568
288.15 K, x2 = 0.2287 | 872.74 | –
288.15 K, x2 = 0.2853 | 868.15 | –
288.15 K, x2 = 0.2979 | – | 0.654
288.15 K, x2 = 0.3791 | 860.52 | –
288.15 K, x2 = 0.3954 | – | 0.784
288.15 K, x2 = 0.4421 | 855.33 | –
288.15 K, x2 = 0.496 | – | 0.948
288.15 K, x2 = 0.5564 | 845.76 | –
288.15 K, x2 = 0.5739 | 844.3 | –
288.15 K, x2 = 0.5936 | – | 1.198
288.15 K, x2 = 0.625 | 839.91 | –
288.15 K, x2 = 0.6843 | 834.73 | –
288.15 K, x2 = 0.6894 | – | 1.57
288.15 K, x2 = 0.7309 | 830.64 | –
288.15 K, x2 = 0.7517 | 828.8 | –
288.15 K, x2 = 0.7555 | 828.45 | –
288.15 K, x2 = 0.7567 | 828.35 | –
288.15 K, x2 = 0.7923 | – | 2.196
288.15 K, x2 = 0.849 | 819.9 | –
288.15 K, x2 = 0.8912 | – | 3.098
288.15 K, x2 = 0.9196 | 813.2 | –
288.15 K, x2 = 0.9806 | 807.26 | –
298.15 K, x2 = 0.1003 | – | 0.454
298.15 K, x2 = 0.1993 | – | 0.499
298.15 K, x2 = 0.2979 | – | 0.567
298.15 K, x2 = 0.3954 | – | 0.663
298.15 K, x2 = 0.496 | – | 0.787
298.15 K, x2 = 0.5936 | – | 0.97
298.15 K, x2 = 0.6894 | – | 1.23
298.15 K, x2 = 0.7923 | – | 1.669
298.15 K, x2 = 0.8912 | – | 2.284
308.15 K, x2 = 0.1003 | – | 0.408
308.15 K, x2 = 0.1006 | 861.12 | –
308.15 K, x2 = 0.1959 | 853.68 | –
308.15 K, x2 = 0.1993 | – | 0.445
308.15 K, x2 = 0.277 | 847.47 | –
308.15 K, x2 = 0.2979 | – | 0.497
308.15 K, x2 = 0.3894 | 838.94 | –
308.15 K, x2 = 0.3954 | – | 0.574
308.15 K, x2 = 0.4895 | 831.33 | –
308.15 K, x2 = 0.496 | – | 0.663
308.15 K, x2 = 0.5863 | 823.9 | –
308.15 K, x2 = 0.5936 | – | 0.801
308.15 K, x2 = 0.6894 | – | 0.986
308.15 K, x2 = 0.6914 | 815.7 | –
308.15 K, x2 = 0.7923 | – | 1.295
308.15 K, x2 = 0.7941 | 807.44 | –
308.15 K, x2 = 0.8912 | – | 1.724
308.15 K, x2 = 0.8989 | 798.78 | –
318.15 K, x2 = 0.0905 | 850.62 | –
318.15 K, x2 = 0.1003 | – | 0.369
318.15 K, x2 = 0.1869 | 843.28 | –
318.15 K, x2 = 0.1993 | – | 0.397
318.15 K, x2 = 0.2712 | 837.05 | –
318.15 K, x2 = 0.2979 | – | 0.44
318.15 K, x2 = 0.3772 | 829.29 | –
318.15 K, x2 = 0.3954 | – | 0.498
318.15 K, x2 = 0.4806 | 821.73 | –
318.15 K, x2 = 0.496 | – | 0.567
318.15 K, x2 = 0.5812 | 814.29 | –
318.15 K, x2 = 0.5936 | – | 0.682
318.15 K, x2 = 0.6819 | 806.85 | –
318.15 K, x2 = 0.6894 | – | 0.808
318.15 K, x2 = 0.7816 | 799.34 | –
318.15 K, x2 = 0.7923 | – | 1.025
318.15 K, x2 = 0.8896 | 791.03 | –
318.15 K, x2 = 0.8912 | – | 1.33

CCCCCl [1-chlorobutane] + CCC(C)O
[2]
Details | mass density [kg/m3] | viscosity [mPa·s]
288.15 K, x2 = 0.05 | 887.1 | –
288.15 K, x2 = 0.0965 | – | 0.496
288.15 K, x2 = 0.1177 | 881.38 | –
288.15 K, x2 = 0.1435 | 879.24 | –
288.15 K, x2 = 0.1962 | 874.99 | –
288.15 K, x2 = 0.1973 | – | 0.542
288.15 K, x2 = 0.2227 | 872.88 | –
288.15 K, x2 = 0.2962 | – | 0.601
288.15 K, x2 = 0.34 | 863.63 | –
288.15 K, x2 = 0.3934 | – | 0.688
288.15 K, x2 = 0.4058 | 858.45 | –
288.15 K, x2 = 0.4104 | 858.09 | –
288.15 K, x2 = 0.4917 | – | 0.805
288.15 K, x2 = 0.4986 | 851.12 | –
288.15 K, x2 = 0.5241 | 849.12 | –
288.15 K, x2 = 0.5527 | 846.87 | –
288.15 K, x2 = 0.5923 | – | 0.995
288.15 K, x2 = 0.6114 | 842.23 | –
288.15 K, x2 = 0.6634 | 838.14 | –
288.15 K, x2 = 0.6919 | – | 1.286
288.15 K, x2 = 0.7388 | 832.24 | –
288.15 K, x2 = 0.7931 | – | 1.764
288.15 K, x2 = 0.7984 | 827.45 | –
288.15 K, x2 = 0.8286 | 824.99 | –
288.15 K, x2 = 0.884 | 820.5 | –
288.15 K, x2 = 0.8933 | – | 2.648
288.15 K, x2 = 0.9367 | 816.07 | –
298.15 K, x2 = 0.0965 | – | 0.444
298.15 K, x2 = 0.1973 | – | 0.478
298.15 K, x2 = 0.2962 | – | 0.524
298.15 K, x2 = 0.3934 | – | 0.587
298.15 K, x2 = 0.4917 | – | 0.675
298.15 K, x2 = 0.5923 | – | 0.811
298.15 K, x2 = 0.6919 | – | 1.011
298.15 K, x2 = 0.7931 | – | 1.334
298.15 K, x2 = 0.8933 | – | 1.901
308.15 K, x2 = 0.0965 | – | 0.399
308.15 K, x2 = 0.1007 | 860.49 | –
308.15 K, x2 = 0.1941 | 853.08 | –
308.15 K, x2 = 0.1973 | – | 0.426
308.15 K, x2 = 0.2775 | 846.72 | –
308.15 K, x2 = 0.2962 | – | 0.462
308.15 K, x2 = 0.3881 | 838.47 | –
308.15 K, x2 = 0.3934 | – | 0.51
308.15 K, x2 = 0.4876 | 831.15 | –
308.15 K, x2 = 0.4917 | – | 0.577
308.15 K, x2 = 0.5897 | 823.73 | –
308.15 K, x2 = 0.5923 | – | 0.676
308.15 K, x2 = 0.6919 | – | 0.818
308.15 K, x2 = 0.6927 | 816.37 | –
308.15 K, x2 = 0.7931 | – | 1.034
308.15 K, x2 = 0.795 | 808.99 | –
308.15 K, x2 = 0.8933 | – | 1.419
308.15 K, x2 = 0.8963 | 801.67 | –
318.15 K, x2 = 0.0864 | 850.35 | –
318.15 K, x2 = 0.0965 | – | 0.362
318.15 K, x2 = 0.1906 | 842.1 | –
318.15 K, x2 = 0.1973 | – | 0.382
318.15 K, x2 = 0.2732 | 835.88 | –
318.15 K, x2 = 0.2962 | – | 0.41
318.15 K, x2 = 0.382 | 828 | –
318.15 K, x2 = 0.3934 | – | 0.45
318.15 K, x2 = 0.4862 | 820.61 | –
318.15 K, x2 = 0.4917 | – | 0.498
318.15 K, x2 = 0.5852 | 813.65 | –
318.15 K, x2 = 0.5923 | – | 0.571
318.15 K, x2 = 0.6823 | 806.95 | –
318.15 K, x2 = 0.6919 | – | 0.676
318.15 K, x2 = 0.7865 | 799.78 | –
318.15 K, x2 = 0.7931 | – | 0.825
318.15 K, x2 = 0.8928 | 792.59 | –
318.15 K, x2 = 0.8933 | – | 1.072
